Values of other authors in patent US8657943B2, “1-hydroxy-2-O-acyl-sn-glycero-3-phosphocholine compounds, preparation process, antifouling composition, process for its preparation, method to prevent fouling, method to turn a surface into an antifouling surface, and, covered surface” (UFRJ, IEAPM, UFF, priority 2010, dated 2014).

What was measured:
[1] = tested on: mussels; settings: concentrations of up to 100 ng/L in seawater
[2] = tested on: Ostrea edulis; settings: 75 days exposure, 0.24 μg/L
[3] = tested on: different cell types; settings: very low concentrations

Substance	effect on the growth of mussels [1]	larval production [2]	sex change male to female [2]	concentrations that trigger physiological responses [3]
tri-butyl tin [TBT]	significant reductions in the growth of mussels	completely inhibited	a delay in changing sex male to female was observed	–
1-O-alkyl-2-acetyl-sn-glycero-3-phosphocholine [platelet activating factor]	–	–	–	10^−12 to 10^−9 M
